The source of these data is publication PMC10108886 (Cancer Research Communications, 2023).

Read-outs that look alike come from different tables or passages of the source.

Common to all, as to experiment: cells
For one test, the system named is CWR22Rv1(shGFP). The settings on record: AR Status=H874Y and V7, growth inhibition with PARP7-inducing ligand, partial maximal effect. The source says: (§1) VCaP cells encode wild-type (WT) AR and the V7 variant, and are used to model castrate resistance owing to amplification of AR. CWR22Rv1 is an informative model for therapy resistance mediated by AR splice variants that lack the ligand-binding domain. PC3-AR is a PC3 derivative engineered to express WT AR, which drives a gene expression profile that overlaps other prostate lines ([18]). PC3 cells are AR negative, resistant to therapies based on androgen deprivation, highly motile, and used to study prostate cancer metastasis. […] It is well established that androgen treatment is growth repressive in some prostate cancer lines. […] A G1 effect of androgen is, however, apparent in VCaP and PC3-AR cells (Supplementary Fig. S1A). […] FICZ is a naturally occurring tryptophan photoproduct, while 10-Chloro-7H-benzimidazo[2,1-a]benz[de]isoquinolin-7-one (10-CI-BBQ; here termed BBQ) is a synthetic molecule. FICZ and BBQ induce AHR target genes through a chaperone-mediated mechanism ([26]). […] In A, D–H, each condition reflects eight biological replicates, error bars show the SD, and ****, P < 0.0001; ***, P < 0.001; **, <0.01. […] The experiments were performed in triplicate, error bars show the SD, and ***, P < 0.001; **, <0.01, *, <0.05; ns, not significant. C, Phase contrast microscopy showing the morphology of cells treated with AHR agonist and RBN2397. […] A similar image for CWR22Rv1 cells with vehicle alone (−) is used in both Fig. 2C and 4C. […] F, RBN2397 dose–response curve of VCaP cells treated with BBQ.

For another test, the system named is CWR22Rv1(shPARP7). The settings on record: AR Status=H874Y and V7, growth inhibition with PARP7-inducing ligand, partial maximal effect.
Excerpt: as §1

Another test relates to DU145. The note with it: Homo sapiens, DU-145, read-out: EC50 of RBN2397 (nM), Ligand* (Conc.)=BBQ (10 nM); AR Status=(-); growth inhibition with PARP7-inducing ligand; partial maximal effect.
Excerpt: as §1

A further test has as its system PC3AR(shGFP). The note with it: PC3/AR, AR Status=WT, growth inhibition with PARP7-inducing ligand, partial maximal effect.
Excerpt: as §1

A further test has as its system PC3AR(shParp7). The note with it: PC3/AR, AR Status=WT, growth inhibition with PARP7-inducing ligand, partial maximal effect.
Excerpt: as §1

For another test, the system named is PC3AR. The settings on record: PC3/AR, read-out: EC50 of RBN2397 (nM), Ligand* (Conc.)=R1881 (0.2 nM); AR Status=WT; growth inhibition with PARP7-inducing ligand; partial maximal effect.
Excerpt: as §1

The test system of another test is PC3. The note with it: Homo sapiens, AR Status=(-), growth inhibition with PARP7-inducing ligand, partial maximal effect.
Excerpt: as §1

The next test relates to VCaP. The note with it: Homo sapiens, VCaP, AR Status=WT and V7, growth inhibition with PARP7-inducing ligand, partial maximal effect.
Excerpt: as §1

Where [1] appears, read: CWR22Rv1, read-out: EC50 of RBN2397 (nM), Ligand* (Conc.)=BBQ (10 nM).
Where [2] appears, read: CWR22Rv1, read-out: EC50 of RBN2397 (nM), Ligand* (Conc.)=R1881 (2 nM).
[3] abbreviates: read-out: EC50 of RBN2397 (nM), Ligand* (Conc.)=BBQ (10 nM).
Where [4] appears, read: read-out: EC50 of RBN2397 (nM), Ligand* (Conc.)=R1881 (0.2 nM).

For the molecule `C[C@@H](COCCC(=O)N1CCN(c2ncc(C(F)(F)F)cn2)CC1)Nc1cn[nH]c(=O)c1C(F)(F)F` [RBN2397], the EC50 was determined as 0.6 nM with CWR22Rv1(shGFP) (setting [1]); 4.8 nM in the test with CWR22Rv1(shGFP) (setting [2]); 1.7 nM with CWR22Rv1(shPARP7) (setting [1]); 39.6 nM with CWR22Rv1(shPARP7) (setting [2]); 5.2 nM in the test with DU145; 8.4 nM in the test with PC3AR(shGFP) (setting [3]). Also, the EC50 turned out to be 3.4 nM in the test with PC3AR(shGFP) (setting [4]); 5.6 nM in the test on PC3AR(shParp7) (setting [3]); 5.7 nM with PC3AR(shParp7) (setting [4]); 2.4 nM with PC3AR; 10 nM with PC3 (PC-3, read-out: EC50 of RBN2397 (nM), Ligand* (Conc.)=BBQ (10 nM)); 9.4 nM in the test with PC3 (PC-3, read-out: EC50 of RBN2397 (nM), Ligand* (Conc.)=R1881 (0.2 nM)). For the same molecule, the EC50 stood at 34.2 nM with VCaP (read-out: EC50 of RBN2397 (nM), Ligand* (Conc.)=BBQ (100 nM)) and 3.4 nM in the test on VCaP (read-out: EC50 of RBN2397 (nM), Ligand* (Conc.)=R1881 (2 nM)).
